Measured values taken from ChEMBL document CHEMBL1201862, “PubChem BioAssay data set” (2004).
Active and inactive are the calls of the source. For most assays here, no stated cut-off is given here; in the data, actives have a measured EC50 and inactives only a lower limit.

Legend:
Mu-type opioid receptor = Mu-type opioid receptor (Homo sapiens, UniProt P35372); experiment: SAR Analysis of Antagonists of the MOR Receptor using an Image-Based Assay - Set 3. [Related pubchem assays (depositor defined):AID1777, AID1785, AID1786, AID1966, AID2133, AID2136, AID2284, AID2285, AID2420]; type: functional
Chain of Mu-type opioid receptor (P35372 whole entry): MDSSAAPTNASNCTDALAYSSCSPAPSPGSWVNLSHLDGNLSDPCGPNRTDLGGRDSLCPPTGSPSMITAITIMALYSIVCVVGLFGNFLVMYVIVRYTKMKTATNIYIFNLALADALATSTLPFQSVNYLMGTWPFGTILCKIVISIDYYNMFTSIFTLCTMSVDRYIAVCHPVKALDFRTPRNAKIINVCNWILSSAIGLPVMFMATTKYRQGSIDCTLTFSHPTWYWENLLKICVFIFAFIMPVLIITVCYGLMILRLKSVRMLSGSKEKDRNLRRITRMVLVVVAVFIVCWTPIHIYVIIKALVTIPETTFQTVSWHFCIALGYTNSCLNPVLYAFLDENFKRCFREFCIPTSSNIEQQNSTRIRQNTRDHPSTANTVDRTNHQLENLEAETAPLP

[1] = molecular target: T1, Kappa-type opioid receptor (Homo sapiens, UniProt P41145); experiment: SAR analysis of small molecule antagonists of the kappa opioid receptor via a luminescent beta-arrestin assay - Set 6. [Related pubchem assays (depositor defined):AID1777, AID1778, AID1785, AID1786, AID1966, AID2133, AID2136, AID2285]; type: functional
T1 sequence (P41145 whole entry): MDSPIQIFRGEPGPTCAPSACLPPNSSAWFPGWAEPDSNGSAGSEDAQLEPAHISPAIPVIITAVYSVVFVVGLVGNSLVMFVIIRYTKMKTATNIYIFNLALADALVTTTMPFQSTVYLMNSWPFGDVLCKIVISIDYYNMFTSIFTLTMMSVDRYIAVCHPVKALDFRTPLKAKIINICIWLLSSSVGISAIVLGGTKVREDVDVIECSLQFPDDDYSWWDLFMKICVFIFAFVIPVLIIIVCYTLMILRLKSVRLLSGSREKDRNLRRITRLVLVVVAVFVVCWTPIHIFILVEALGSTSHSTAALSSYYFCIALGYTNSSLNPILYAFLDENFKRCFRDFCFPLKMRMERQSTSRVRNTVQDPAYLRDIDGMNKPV

[2] = molecular target: T1, Kappa-type opioid receptor; experiment: SAR analysis of small molecule antagonists of the kappa opioid receptor via a luminescent beta-arrestin assay - Set 4. [Related pubchem assays (depositor defined):AID1777, AID1778, AID1785, AID1786, AID1966, AID2133, AID2136, AID2285]; type: functional
[3] = molecular target: Delta-type opioid receptor (Homo sapiens, UniProt P41143); experiment: SAR Analysis of Antagonists of the DOR Receptor using an Image-Based Assay - Set 3. [Related pubchem assays (depositor defined):AID1777, AID1785]; type: functional;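 further: U2OS cells expressing DOR1 and beta-arrestin GFP stimulated with 100 nM SNC80; imaging of GFP-tagged beta-arrestin moving into spots after receptor activation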
Chain of Delta-type opioid receptor (P41143 whole entry): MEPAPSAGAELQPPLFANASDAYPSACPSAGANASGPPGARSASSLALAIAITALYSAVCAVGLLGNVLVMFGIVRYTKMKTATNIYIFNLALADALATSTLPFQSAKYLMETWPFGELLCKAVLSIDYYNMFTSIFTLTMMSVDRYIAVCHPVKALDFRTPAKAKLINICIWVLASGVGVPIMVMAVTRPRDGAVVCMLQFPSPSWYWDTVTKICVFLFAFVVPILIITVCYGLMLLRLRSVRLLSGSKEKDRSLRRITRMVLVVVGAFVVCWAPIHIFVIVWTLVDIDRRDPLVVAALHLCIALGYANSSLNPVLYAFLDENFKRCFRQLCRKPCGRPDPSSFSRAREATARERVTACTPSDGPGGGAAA

[4] = molecular target: T1, Kappa-type opioid receptor; experiment: SAR analysis of Antagonists of the Kappa Opioid Receptor (KOR) using an Image-Based Assay - Set 4. [Related pubchem assays (depositor defined):AID1777, AID1785]; type: functional
[5] = luciferase reporter signal suppression in cells – H4 neuroglioma cells, luminescence, dose response (AID 1990); type: functional, cell-based
[6] = luciferase reporter signal reduction – luminescence, H4-C neuroglioblastoma cells, dose response (AID 2458); type: functional, cell-based;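 further: H4 neuroglioblastoma cells stably carrying a luciferase reporter gene fusion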
BJ [7] = experiment: BJ-TERT fibroblast viability loss – cell-based, RAS-independent, luminescence, dose response (AID 1933); type: functional; details: Homo sapiens
cells = type: functional, cell-based
[8] = Luminescence Cell-Based Dose Response HTS to Identify Inhibitors of 5'UTR Stem-Loop Driven Prion Protein mRNA Translation in H4 Neuroglioblastoma Cells. [Related pubchem assays: 1827 (Project Summary), 1813 (Primary HTS)]; type: functional
[9] = alpha-synuclein stem-loop luciferase translation blockers – H4 neuroglioma cells, luminescence, confirmation (AID 1988); type: functional, cell-based
BJ [10] = experiment: cells; type: functional, cell-based; details: Homo sapiens
Prothrombin = Prothrombin (Homo sapiens, UniProt P00734); experiment: Thrombin 1536 HTS Dose Response Confirmation. [Related pubchem assays: 1046 (Thrombin 1536 HTS; hits were confirmed in this assay)]; type: functional
J774.A1 = experiment: Confirmation of image-based Screening Assay for Inhibitors of Phagocytosis. [Related pubchem assays (depositor defined):AID1029, AID1643]; type: functional, cell-based; details: Mus musculus
BJ [11] = experiment: BJ-TERT-LT-ST fibroblast viability loss – cell-based, RAS-independent, luminescence, dose response (AID 1935); type: functional; details: Homo sapiens;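 further: BJ fibroblasts immortalized with TERT plus LT and ST oncogenes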
[12] = DRD fibroblast viability loss – cell-based, non-viral oncogenic, luminescence, dose response (AID 1934); type: functional; details: Homo sapiens
[13] = alpha-synuclein stem-loop translation blockers – luminescence, H4 neuroglioblastoma cells, dose confirmation, confirmation (AID 2454); type: functional, cell-based;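 further: H4 neuroglioblastoma cells carrying an alpha-synuclein 5'UTR luciferase reporter; potency for inhibition of the luciferase signal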

## Cc1ccc(S(=O)(=O)NCc2ccc(C(=O)NCCN3CCc4ccccc4C3)cc2)cc1
Mu-type opioid receptor
  IC50: > 32 µM (inactive)
[1]
  IC50: > 20 µM (inactive)
[2]
  IC50: > 20 µM (inactive)
[3]
  IC50: > 32 µM (inactive)
[4]
  IC50: 5.98 µM (active)

## O=C(c1ccco1)N1CCN(C(=O)N2c3ccccc3Sc3ccccc32)CC1
[5]
  EC50: < 0.1 µM (active)
[6]
  EC50: 0.295 µM (active)
BJ [7]
  EC50: 8.08 µM (inconclusive)
cells
  EC50: 0.291 µM (active)
[8]
  EC50: 0.136 µM (active)
[9]
  EC50: < 0.1 µM (active)
BJ [10]
  EC50: 13.2 µM (inconclusive)
Prothrombin
  IC50: > 50 µM (not active)
J774.A1
  IC50: < 0.05 µM (inactive)
BJ [11]
  EC50: 1.41 µM (inconclusive)
[12]
  EC50: 6.59 µM (inconclusive)
[13]
  EC50: 0.381 µM (active)
